One block for each compound: values may come before it.
System: PIP tumor and PC3 tumor
Assay: Biodistribution of 125I labeled compounds 17, 18, 26 and 27 in tumor bearing nude mice
Assay type: in vivo
Conditions: for Biodistribution: Bladder* / Biodistribution: Stomach* / Biodistribution: large intestine* / Biodistribution: small intestine*: organ with content; for PIP/blood / PIP/muscle: ratio
Protocol: Radioiodination and Purification: 100 μg of either precursor 13, 14, 22 or 23 were dissolved in 100 μL EtOH; 22 μL Na^125I (1033-1118 μCi in 0.1 N NaOH), 100 μL 1N HCl and 100 μL 3% H2O2 were added. After 15 minutes at room temperature, the reaction was stopped by adding 150 μL sat. NaHSO3. The reaction mixture was slowly added to 1.5 mL sat. NaHCO3. Vial was rinsed with 1000 μL EtOH and mixture was diluted further to 10 mL mL water. The active sample was transferred onto an activated C4 mini column. The mixture was pushed through, washed twice with 3 mL water and the product was eluted with 1 mL ACN. Added 100 μL DMSO. The mixture was concentrated to ˜100 μL and purified by HPLC (Agilent Eclipse XCD C18 150×4.6 mm, 5 μm; 4 mL/min, gradient (ACN and water; 0-1 min (20/80), 1-16 min (20/80-100/0), 16-16.5 min (100/0-20/80), 16.5-20 min 20/80) (collected every minute). The sample was blown to dryness under argon, re-dissolved in 500 μL CH2Cl2 and 1 mL TFA was added at room temperature. After 1 hr the solution was blown to dryness and activity taken into 1 mL EtOH (10 μL saturated ascorbic acid/EtOH was added). Isolated activities for [^125I]17, 18, 26, and 27 were 197, 189, 600 and 197 μCi respectively. A representative picture of HPLC profiles (FIG. 3) for radiolabeled protected (intermediate), cold standard and radioactive trace of final compound is shown for [^125I]26.
For iv injection 150 μL of labeled solution was diluted with saline to 3.75 mL. Mice were injected with 2˜3 μCi of [^125I]18, 27, 26, and 18 in 0.15 mL saline. Injected radioactivity was 2 to 3 μCi.
Biodistribution study of [^125I]18, 27, 26, and 18 in tumor bearing nude mice were evaluated for their ability to localization of PSMA positive tumor (Tables 5, 6, 7 and 8). It was observed that [^125I]26 and [^125I] […] These new agents are valuable for radionuclide therapy, when labeled with beta or alpha-emitting isotopes; but these agents will also be useful as diagnostic agents when labeled with gamma-emitting isotopes.

Biodistribution: Blood (1 h): 0.45 ± 0.11 % ID/g | Biodistribution: Bone (1 h): 0.16 ± 0.02 % ID/g | Biodistribution: Heart (1 h): 0.29 ± 0.04 % ID/g | Biodistribution: Kidney (1 h): 41.44 ± 5.10 % ID/g | Biodistribution: Liver (1 h): 2.94 ± 2.12 % ID/g | Biodistribution: Lung (1 h): 1.15 ± 1.27 % ID/g | Biodistribution: Muscle (1 h): 0.43 ± 0.24 % ID/g | Biodistribution: PC3 tumor (1 h): 1.70 ± 1.33 % ID/g | Biodistribution: PIP tumor (1 h): 10.72 ± 2.98 % ID/g | Biodistribution: Pancreas (1 h): 0.55 ± 0.64 % ID/g | Biodistribution: Skin (1 h): 0.57 ± 0.24 % ID/g | Biodistribution: Spleen (1 h): 3.25 ± 1.52 % ID/g | Biodistribution: gland (1 h): 0.81 ± 0.18 % ID/g | Biodistribution: thyroid (1 h): 3.57 ± 0.75 % ID/g | Biodistribution: Bladder* (1 h): 204.72 ± 108.11 % ID/g | Biodistribution: Stomach* (1 h): 0.18 ± 0.05 % ID/g | Biodistribution: large intestine* (1 h): 2.10 ± 1.64 % ID/g | Biodistribution: small intestine* (1 h): 3.22 ± 1.64 % ID/g | PIP/blood (1 h): 23.69 ± 2.07 | PIP/muscle (1 h): 27.52 ± 7.80 | Biodistribution: Blood (4 h): 0.09 ± 0.03 % ID/g | Biodistribution: Bone (4 h): 0.03 ± 0.02 % ID/g | Biodistribution: Heart (4 h): 0.11 ± 0.07 % ID/g | Biodistribution: Kidney (4 h): 25.41 ± 7.57 % ID/g | Biodistribution: Liver (4 h): 0.48 ± 0.53 % ID/g | Biodistribution: Lung (4 h): 0.19 ± 0.13 % ID/g | Biodistribution: Muscle (4 h): 0.25 ± 0.44 % ID/g | Biodistribution: PC3 tumor (4 h): 0.28 ± 0.10 % ID/g | Biodistribution: PIP tumor (4 h): 5.17 ± 2.02 % ID/g | Biodistribution: Pancreas (4 h): 0.22 ± 0.25 % ID/g | Biodistribution: Skin (4 h): 0.11 ± 0.04 % ID/g | Biodistribution: Spleen (4 h): 0.46 ± 0.27 % ID/g | Biodistribution: gland (4 h): 0.19 ± 0.05 % ID/g | Biodistribution: thyroid (4 h): 7.16 ± 1.91 % ID/g | Biodistribution: Bladder* (4 h): 68.75 ± 30.09 % ID/g | Biodistribution: Stomach* (4 h): 0.11 ± 0.10 % ID/g | Biodistribution: large intestine* (4 h): 0.86 ± 0.22 % ID/g | Biodistribution: small intestine* (4 h): 0.23 ± 0.16 % ID/g | PIP/blood (4 h): 62.95 ± 31.81 | PIP/muscle (4 h): 200.29 ± 221.74 | Washout in PIP tumors, kidneys and spleen compared to [125I]18 and [125I]27 (mouse, in vivo): significantly faster washout
Compound: O=C(O)CC[C@H](NC(=O)N[C@@H](CCCCNC(=O)[C@H](Cc1ccccc1)NC(=O)[C@H](CCC(=O)O)NC(=O)c1ccc([125I])cc1)C(=O)O)C(=O)O [[^125I]17]

Biodistribution: Blood (1 h): 0.71 ± 0.31 % ID/g | Biodistribution: Bone (1 h): 0.89 ± 0.08 % ID/g | Biodistribution: Heart (1 h): 3.06 ± 0.48 % ID/g | Biodistribution: Kidney (1 h): 96.21 ± 21.68 % ID/g | Biodistribution: Liver (1 h): 3.57 ± 0.32 % ID/g | Biodistribution: Lung (1 h): 3.16 ± 0.55 % ID/g | Biodistribution: Muscle (1 h): 0.95 ± 0.27 % ID/g | Biodistribution: PC3 tumor (1 h): 2.22 ± 0.58 % ID/g | Biodistribution: PIP tumor (1 h): 13.29 ± 3.46 % ID/g | Biodistribution: Pancreas (1 h): 1.66 ± 0.93 % ID/g | Biodistribution: Skin (1 h): 1.48 ± 0.44 % ID/g | Biodistribution: Spleen (1 h): 6.83 ± 0.46 % ID/g | Biodistribution: gland (1 h): 4.03 ± 0.46 % ID/g | Biodistribution: thyroid (1 h): 15.99 ± 1.88 % ID/g | Biodistribution: Bladder* (1 h): 97.62 ± 20.87 % ID/g | Biodistribution: Stomach* (1 h): 0.46 ± 0.29 % ID/g | Biodistribution: large intestine* (1 h): 1.12 ± 0.65 % ID/g | Biodistribution: small intestine* (1 h): 1.98 ± 0.27 % ID/g | PIP/blood (1 h): 21.30 ± 8.28 | PIP/muscle (1 h): 16.14 ± 10.36 | Biodistribution: Blood (4 h): 0.33 ± 0.17 % ID/g | Biodistribution: Bone (4 h): 0.45 ± 0.23 % ID/g | Biodistribution: Heart (4 h): 1.60 ± 0.46 % ID/g | Biodistribution: Kidney (4 h): 69.39 ± 24.24 % ID/g | Biodistribution: Liver (4 h): 2.62 ± 1.62 % ID/g | Biodistribution: Lung (4 h): 1.50 ± 0.65 % ID/g | Biodistribution: Muscle (4 h): 0.69 ± 0.27 % ID/g | Biodistribution: PC3 tumor (4 h): 1.20 ± 0.52 % ID/g | Biodistribution: PIP tumor (4 h): 15.27 ± 5.40 % ID/g | Biodistribution: Pancreas (4 h): 0.89 ± 0.13 % ID/g | Biodistribution: Skin (4 h): 0.81 ± 0.37 % ID/g | Biodistribution: Spleen (4 h): 4.37 ± 1.70 % ID/g | Biodistribution: gland (4 h): 2.25 ± 0.80 % ID/g | Biodistribution: thyroid (4 h): 26.99 ± 18.70 % ID/g | Biodistribution: Bladder* (4 h): 123.13 ± 40.10 % ID/g | Biodistribution: Stomach* (4 h): 0.72 ± 0.76 % ID/g | Biodistribution: large intestine* (4 h): 0.74 ± 0.25 % ID/g | Biodistribution: small intestine* (4 h): 1.11 ± 0.82 % ID/g | PIP/blood (4 h): 50.29 ± 15.07 | PIP/muscle (4 h): 25.78 ± 14.13 | Liver uptakes (mouse, in vivo): low
Compound: O=C(O)CC[C@H](NC(=O)N[C@@H](CCCCNC(=O)[C@H](Cc1ccccc1)NC(=O)[C@H](CCC(=O)O)NC(=O)[C@H](CCC(=O)O)NC(=O)c1ccc([125I])cc1)C(=O)O)C(=O)O [[^125I]18]

Biodistribution: Blood (1 h): 0.46 ± 0.22 % ID/g | Biodistribution: Bone (1 h): 0.48 ± 0.11 % ID/g | Biodistribution: Heart (1 h): 0.73 ± 0.20 % ID/g | Biodistribution: Kidney (1 h): 174.61 ± 30.65 % ID/g | Biodistribution: Liver (1 h): 4.61 ± 1.72 % ID/g | Biodistribution: Lung (1 h): 3.08 ± 0.87 % ID/g | Biodistribution: Muscle (1 h): 1.72 ± 0.54 % ID/g | Biodistribution: PC3 tumor (1 h): 2.39 ± 1.42 % ID/g | Biodistribution: PIP tumor (1 h): 26.19 ± 3.46 % ID/g | Biodistribution: Pancreas (1 h): 0.98 ± 0.42 % ID/g | Biodistribution: Skin (1 h): 2.33 ± 0.61 % ID/g | Biodistribution: Spleen (1 h): 21.66 ± 2.63 % ID/g | Biodistribution: gland (1 h): 6.97 ± 1.06 % ID/g | Biodistribution: thyroid (1 h): 13.21 ± 8.48 % ID/g | Biodistribution: Bladder* (1 h): 14.69 ± 3.80 % ID/g | Biodistribution: Stomach* (1 h): 0.35 ± 0.11 % ID/g | Biodistribution: large intestine* (1 h): 1.24 ± 0.79 % ID/g | Biodistribution: small intestine* (1 h): 1.08 ± 0.63 % ID/g | PIP/blood (1 h): 66.04 ± 29.31 | PIP/muscle (1 h): 16.02 ± 3.85 | Biodistribution: Blood (4 h): 0.21 ± 0.21 % ID/g | Biodistribution: Bone (4 h): 0.25 ± 0.06 % ID/g | Biodistribution: Heart (4 h): 0.38 ± 0.23 % ID/g | Biodistribution: Kidney (4 h): 114.69 ± 32.67 % ID/g | Biodistribution: Liver (4 h): 4.90 ± 1.80 % ID/g | Biodistribution: Lung (4 h): 2.08 ± 0.67 % ID/g | Biodistribution: Muscle (4 h): 0.30 ± 0.19 % ID/g | Biodistribution: PC3 tumor (4 h): 1.37 ± 0.45 % ID/g | Biodistribution: PIP tumor (4 h): 14.32 ± 3.87 % ID/g | Biodistribution: Pancreas (4 h): 0.52 ± 0.26 % ID/g | Biodistribution: Skin (4 h): 1.67 ± 1.30 % ID/g | Biodistribution: Spleen (4 h): 15.37 ± 3.26 % ID/g | Biodistribution: gland (4 h): 2.03 ± 1.29 % ID/g | Biodistribution: thyroid (4 h): 28.57 ± 10.04 % ID/g | Biodistribution: Bladder* (4 h): 15.11 ± 4.09 % ID/g | Biodistribution: Stomach* (4 h): 0.49 ± 0.27 % ID/g | Biodistribution: large intestine* (4 h): 1.35 ± 0.47 % ID/g | Biodistribution: small intestine* (4 h): 0.30 ± 0.11 % ID/g | PIP/blood (4 h): 104.80 ± 62.05 | PIP/muscle (4 h): 60.91 ± 38.35 | Liver uptakes (mouse, in vivo): low | Uptakes in PIP tumors, kidneys and spleen compared to [125I]17 and [125I]18 (mouse, in vivo): higher uptakes | Washout in PIP tumors, kidneys and spleen compared to [125I]18 and [125I]27 (mouse, in vivo): significantly faster washout
Compound: O=C(O)CC[C@H](NC(=O)N[C@@H](CCCCNC(=O)[C@H](Cc1ccccc1)NC(=O)COc1ccc(C[C@H](NC(=O)[C@H](CCC(=O)O)NC(=O)c2ccc([125I])cc2)C(=O)O)cc1)C(=O)O)C(=O)O [[^125I]26]
